# In US20080182842A1, “L-alanine derivatives as a5beta1 antagonists” (ASTRAZENECA AB, priority 2007, published 2008):
# Target: α5β1 integrin (Homo sapiens, UniProt P05556+P08648)
# Test: In vitro binding assay (a): inhibition of binding of α5β1 integrin to fibronectin fragment Fn9-10 (Origen electrochemiluminescence)
# Details: recombinant human α5β1 vs Fn9-10 ligand; geometric mean where tested more than once
# From the text: (a) In Vitro Binding Assay
# The assay determined the ability of compounds to inhibit binding of α5β1 integrin to a cognate ligand, a fragment of human fibronectin. The assay used Origen technology (IGEN International) to measure the compound activity. Briefly, α5β1 integrin was coated onto epoxy-paramagnetic beads (Dynal Biotech UK, Bromborough, Wirral, CH62 3QL, UK, Catalogue No 140.11) and biotinylated-fibronectin ligand was coupled to strepatividin labeled Tag-NHS-Ester (BioVeris Corporation, Witney, Oxfordshire, OX28 4GE, UK, Catalogue No 110034). The ruthenium-labeled tag emits an electrochemiluminescence signal upon stimulation which is detected by the Origen reader. Thus, interaction of integrin and ligand causes association of bead and tag, and the resulting electrochemiluminescence signal reflects the level of integrin interaction with fibronectin.
# 20 μg of recombinant human α5β1 was coated onto 4×10(7) epoxy-paramagnetic beads according to manufacturers instructions at 4° C. for 24 hours. Integrin coating and corresponding activity was subsequently measured for each batch but typically, 25 ng of coated protein was used per assay well.
# A DNA fragment encoding the domains 9-10 (amino-acids 1325-1509) of human fibronectin (Swiss-Prot Accession No. P02751) was isolated from cDNA libraries using standard molecular biology and PCR cloning techniques. The cDNA fragment was sub-cloned into a pT73.3 expression vector containing a GST-epitope tag (developed at AstraZeneca; Bagnall et al., Protein Expression and Purification, 2003, 27: 1-11). Following expression in E. coli, the expressed protein, termed Fn9-10, was purified using the GST-tag using standard purification techniques. The recombinant Fn9-10 was subsequently biotinylated using a EZ-link Sulfo-NHS-LC-Biotinylation kit (Perbio Science UK Ltd., Cramlington, Northumberland, NE23 1WA, UK, Catalogue No. 21335) and made to give a final concentration of approximately 1 mg/ml. Tag-NHS-Ester was labeled with streptavidin by incubation at room temperature following manufacturers instructions and buffer-exchanged into PBS to give a concentration of 0.5 mg/ ml. Immediately prior to the assay, biotinylated-Fn9-10 and Streptavidin-labeled Tag were diluted in Assay Buffer to give a final concentrations of 0.6 ug/ml and 1.5 ug/ml respectively. The Fn9-10 and Tag solutions were then mixed together in equal volumes and incubated on ice for at least 30 minutes prior to the assay.
# Test compounds were prepared as 10 mM stock solutions in DMSO (Sigma-Aldrich Company Ltd, Gillingham, Dorset SP8 4XT Catalogue No. 154938) and serially diluted with 4% DMSO to give a range of test concentrations at ×4 required final concentration. Aliquots (20 μl) of each compound dilution were placed into each well of a 384-well round bottomed polypropylene plate (Matrix Technologies, Wilmslow, Cheshire, SK9 3LP, Catalogue No. 4340 384). Each plate also contained control wells: maximum signal was created using wells containing 20 μl of 4% DMSO, and minimum signal corresponding to no binding was created using wells containing 20 μl of 80 mM EDTA (Sigma Catalogue No. E7889).
# For the assay, 25 ng(20 ul) of a5b1-bead suspension and 40 μl of the Fn9-10/Tag pre-incubated solution were added to each well containing 20 μl of compound or control solution. Assay plates were then incubated at room temperature for a minimum of 6 hours before being analysed on an Origen plate reader. The minimum value was subtracted from all values, and the signal was plotted against compound concentration to generate IC50 data.
# The data in the above table was generated in an assay substantially as described above in relation to Binding Assay (a). Some of the compounds shown in the table were tested more than once in the assay. For those compounds the IC50 value shown is the geometric mean of the measured IC50 values. […]
# α5β1 integrin, sequence (P08648 42-894 limits assumed): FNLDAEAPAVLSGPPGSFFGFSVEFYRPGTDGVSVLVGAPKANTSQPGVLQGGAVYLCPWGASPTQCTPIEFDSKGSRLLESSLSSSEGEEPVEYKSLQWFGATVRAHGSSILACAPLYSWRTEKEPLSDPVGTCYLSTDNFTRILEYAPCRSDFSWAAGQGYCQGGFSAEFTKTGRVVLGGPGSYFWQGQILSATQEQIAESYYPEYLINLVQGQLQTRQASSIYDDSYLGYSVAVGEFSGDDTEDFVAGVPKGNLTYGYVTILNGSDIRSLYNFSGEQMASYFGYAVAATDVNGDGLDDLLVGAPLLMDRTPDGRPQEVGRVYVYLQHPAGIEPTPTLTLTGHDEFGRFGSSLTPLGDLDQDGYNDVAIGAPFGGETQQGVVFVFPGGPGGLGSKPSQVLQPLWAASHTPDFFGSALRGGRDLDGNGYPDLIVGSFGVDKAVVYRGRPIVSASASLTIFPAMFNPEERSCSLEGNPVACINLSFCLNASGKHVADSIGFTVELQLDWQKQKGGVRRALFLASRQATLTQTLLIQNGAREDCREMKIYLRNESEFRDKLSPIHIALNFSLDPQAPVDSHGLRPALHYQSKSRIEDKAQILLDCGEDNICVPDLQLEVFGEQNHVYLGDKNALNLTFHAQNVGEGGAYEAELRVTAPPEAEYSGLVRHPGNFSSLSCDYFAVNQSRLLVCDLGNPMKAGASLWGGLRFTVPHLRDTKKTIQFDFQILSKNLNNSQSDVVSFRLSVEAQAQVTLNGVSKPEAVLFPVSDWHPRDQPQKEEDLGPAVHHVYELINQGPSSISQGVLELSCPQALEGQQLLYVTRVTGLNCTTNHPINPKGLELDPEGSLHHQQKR
# α5β1 integrin, sequence (P08648 895-1049 partner limits assumed): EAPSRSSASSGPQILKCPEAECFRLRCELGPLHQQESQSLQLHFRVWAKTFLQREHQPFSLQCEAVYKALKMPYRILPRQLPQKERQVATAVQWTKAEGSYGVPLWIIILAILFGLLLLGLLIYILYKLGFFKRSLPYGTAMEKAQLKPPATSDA
# α5β1 integrin, sequence (P05556 21-798): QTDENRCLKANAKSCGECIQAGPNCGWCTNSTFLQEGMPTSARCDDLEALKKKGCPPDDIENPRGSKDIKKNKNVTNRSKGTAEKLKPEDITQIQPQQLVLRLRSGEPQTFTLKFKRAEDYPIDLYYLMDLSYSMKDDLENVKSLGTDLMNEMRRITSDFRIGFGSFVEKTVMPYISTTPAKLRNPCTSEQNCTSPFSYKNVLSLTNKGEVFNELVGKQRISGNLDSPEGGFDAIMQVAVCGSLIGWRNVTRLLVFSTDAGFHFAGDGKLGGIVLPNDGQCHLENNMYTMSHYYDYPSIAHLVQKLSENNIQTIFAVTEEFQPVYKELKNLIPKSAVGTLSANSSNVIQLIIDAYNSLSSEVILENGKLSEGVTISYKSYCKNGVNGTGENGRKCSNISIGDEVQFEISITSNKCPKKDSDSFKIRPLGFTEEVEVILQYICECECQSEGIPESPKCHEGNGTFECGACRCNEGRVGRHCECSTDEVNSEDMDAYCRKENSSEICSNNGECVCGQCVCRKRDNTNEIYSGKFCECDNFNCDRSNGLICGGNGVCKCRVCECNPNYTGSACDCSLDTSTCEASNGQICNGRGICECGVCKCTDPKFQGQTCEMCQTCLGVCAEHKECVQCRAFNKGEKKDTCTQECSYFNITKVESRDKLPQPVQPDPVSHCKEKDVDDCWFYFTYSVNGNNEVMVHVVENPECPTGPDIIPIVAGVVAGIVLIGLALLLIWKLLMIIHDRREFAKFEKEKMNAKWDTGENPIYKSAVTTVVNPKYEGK
row,IC50,Structure (SMILES)
1,61 nM,"CNc1cccc(CCOc2ccc(C[C@H](NC(=O)C3CCCN3C(C)C)C(=O)O)cc2)n1 (stereo partly drawn) [Example 4, N-[(1-isopropylpyrrolidin-2-yl)carbonyl]-O-{2-[6-(methylamino)pyridin-2-yl]ethyl}-L-tyrosine]"
2,11 nM,"CC1(C(=O)N[C@@H](Cc2ccc(OCCc3ccc4c(n3)NCCO4)cc2)C(=O)O)CCCCC1 [Example 5.1, O-[2-(3,4-dihydro-2H-pyrido[3,2-b][1,4]oxazin-6-yl)ethyl]-N-[(1-methylcyclohexyl)carbonyl]-L-tyrosine]"
3,4 nM,"CC(C)(C(=O)N[C@@H](Cc1ccc(OCCc2ccc3c(n2)NCCO3)cc1)C(=O)O)C(=O)N1CCCC1 [Example 5.2, O-[2-(3,4-dihydro-2H-pyrido[3,2-b][1,4]oxazin-6-yl)ethyl]-N-(2,2-dimethyl-3-oxo-3-pyrrolidin-1-ylpropanoyl)-L-tyrosine]"
4,5 nM,"COC1(C(=O)N[C@@H](Cc2ccc(OCCc3ccc4c(n3)NCCO4)cc2)C(=O)O)CCOCC1 [Example 5.3, O-[2-(3,4-dihydro-2H-pyrido[3,2-b][1,4]oxazin-6-yl)ethyl]-N-[(4-methoxytetrahydro-2H-pyran-4-yl)carbonyl]-L-tyrosine]"
